What follows are molecules tested against T1, P70S6K (Homo sapiens, UniProt P23443, T412E) (assay: P70S6K enzyme assay). Details: P70S6K T412E mutant 3 nM, 24 μM ATP, FITC-AHA-AKRRRLSSLRA-OH substrate, 90 min at 25° C.; read-out: IC50p70S6K.
T1 construct: purchased Millipore
Assay type: biochemical
Protocol: P70S6K inhibitor compounds are diluted and plated in 96 well plates. A reaction mixture including the following components is then added to the compound plate to initiate the enzyme reaction; P70S6K (3 nM, T412E mutant, Millipore) is mixed with 24 μM ATP in an assay buffer containing 100 mM Hepes (pH 7.5), 5 mM MgCl2, 1 mM DTT, 0.015% Brij and 1 μM of the substrate peptide FITC-AHA-AKRRRLSSLRA-OH (derived from the S6 ribosomal protein sequence, FITC=fluorescein isothiocyanate, AHA=6-aminohexanoic acid). The reaction is incubated for 90 min at 25° C., before the addition of 10 mM EDTA to stop the reaction. The proportion of substrate and product (phosphorylated) peptide is analyzed on a Caliper Life Sciences Lab Chip 3000, using a pressure of −1.4 psi, and upstream and downstream voltages of −3000 and −700 respectively. Product peaks are resolved before substrate peaks on the resulting chromatograms.
To assess the inhibitory potential of the compounds, IC50-values were determined, as shown in Chemical Synthesis section above.

T1 sequence (P23443 whole entry T412E): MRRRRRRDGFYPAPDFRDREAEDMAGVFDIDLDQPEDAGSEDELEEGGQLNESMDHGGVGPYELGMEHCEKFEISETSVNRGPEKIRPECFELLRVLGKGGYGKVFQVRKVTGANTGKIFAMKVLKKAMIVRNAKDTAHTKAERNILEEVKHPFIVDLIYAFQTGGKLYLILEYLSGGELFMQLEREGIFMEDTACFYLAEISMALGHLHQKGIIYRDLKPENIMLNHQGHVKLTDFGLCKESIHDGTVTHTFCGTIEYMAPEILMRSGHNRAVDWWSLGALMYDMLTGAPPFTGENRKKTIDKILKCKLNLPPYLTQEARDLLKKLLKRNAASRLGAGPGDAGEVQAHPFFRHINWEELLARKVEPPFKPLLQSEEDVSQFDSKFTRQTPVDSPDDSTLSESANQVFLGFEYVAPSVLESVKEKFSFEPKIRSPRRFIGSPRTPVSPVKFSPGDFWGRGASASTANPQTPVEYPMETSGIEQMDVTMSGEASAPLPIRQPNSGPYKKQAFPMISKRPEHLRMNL

SMILES	IC50
NC(=O)c1cccc2c(NC3CNCC3c3ccccc3F)ccnc12 (stereo not drawn) [compound 22, 4-((4-(2-fluorophenyl)pyrrolidin-3-yl)amino)quinoline-8-carboxamide]	9.4 nM
COc1ccccc1C1CNCC1Nc1ccnc2c(C(N)=O)cccc12 (stereo not drawn) [compound 23, 4-((4-(2-methoxyphenyl)pyrrolidin-3-yl)amino)quinoline-8-carboxamide]	46 nM
NC(=O)c1cccc2c(N[C@@H]3CNC[C@H]3c3cc(F)cc(C(F)(F)F)c3)ncnc12 [compound 46, 4-(((3S,4R)-4-(3-fluoro-5-(trifluoromethyl)phenyl)pyrrolidin-3-yl)amino)quinazoline-8-carboxamide]	2.6 nM
NC(=O)c1cccc2c(N[C@H]3CNC[C@@H]3c3cc(F)cc(C(F)(F)F)c3)ncnc12 [compound 47, 4-(((3R,4S)-4-(3-fluoro-5-(trifluoromethyl)phenyl)pyrrolidin-3-yl)amino)quinazoline-8-carboxamide]	160 nM
NC(=O)c1cccc2c(N[C@@H]3CNC[C@H]3c3cccc(C(F)(F)F)c3)ncnc12 [compound 49, 4-(((3S,4R)-4-(3-(trifluoromethyl)phenyl)pyrrolidin-3-yl)amino)quinazoline-8-carboxamide]	60 nM
NC(=O)c1cccc2c(N[C@H]3CNC[C@@H]3c3cccc(C(F)(F)F)c3)ncnc12 [compound 50, 4-(((3R,4S)-4-(3-(trifluoromethyl)phenyl)pyrrolidin-3-yl)amino)quinazoline-8-carboxamide]	3 nM
NC(=O)c1cccc2c(N[C@H]3CNC[C@@H]3c3ccc(C(F)(F)F)cc3)ncnc12 [compound 53, 4-(((3R,4S)-4-(4-(trifluoromethyl)phenyl)pyrrolidin-3-yl)amino)quinazoline-8-carboxamide]	66 nM
NC(=O)c1cccc2c(N[C@H]3CNC[C@H]3c3ccc(C(F)(F)F)cc3)ncnc12 [compound 54, 4-(((3R,4R)-4-(4-(trifluoromethyl)phenyl)pyrrolidin-3-yl)amino)quinazoline-8-carboxamide]	1.3 nM
NC(=O)c1cccc2c(N[C@H]3CNC[C@@H]3c3cccc(OC(F)(F)F)c3)ncnc12 [compound 57]	2.1 nM
NC(=O)c1cccc2c(N[C@H]3CNC[C@H]3c3cccc(OC(F)(F)F)c3)ncnc12 [compound 58, 4-(((3R,4R)-4-(3-(trifluoromethoxy)phenyl)pyrrolidin-3-yl)amino)quinazoline-8-carboxamide]	0.98 nM
NC(=O)c1cccc2c(N[C@H]3CNC[C@@H]3c3ccc(OC(F)(F)F)cc3)ncnc12 [compound 60, 4-(((3R,4S)-4-(4-(trifluoromethoxy)phenyl)pyrrolidin-3-yl)amino)quinazoline-8-carboxamide]	120 nM
NC(=O)c1cccc2c(N[C@@H]3CNC[C@H]3c3ccc(OC(F)(F)F)cc3)ncnc12 [compound 61, 4-(((3S,4R)-4-(4-(trifluoromethoxy)phenyl)pyrrolidin-3-yl)amino)quinazoline-8-carboxamide]	1.5 nM
COc1ccc([C@@H]2CNC[C@H]2Nc2ncnc3c(C(N)=O)cccc23)cc1F [compound 62, 4-(((3S,4R)-4-(3-fluoro-4-methoxyphenyl)pyrrolidin-3-yl)amino)quinazoline-8-carboxamide]	1.5 nM
COc1ccc([C@H]2CNC[C@@H]2Nc2ncnc3c(C(N)=O)cccc23)cc1F [compound 63, 4-(((3R,4S)-4-(3-fluoro-4-methoxyphenyl)pyrrolidin-3-yl)amino)quinazoline-8-carboxamide]	810 nM
NC(=O)c1cccc2c(N[C@H]3CNC[C@@H]3c3ccccc3Cl)ncnc12 [compound 65, 4-(((3R,4S)-4-(2-chlorophenyl)pyrrolidin-3-yl)amino)quinazoline-8-carboxamide]	340 nM
NC(=O)c1cccc2c(N[C@@H]3CNC[C@H]3c3ccccc3Cl)ncnc12 [compound 66, 4-(((3S,4R)-4-(2-chlorophenyl)pyrrolidin-3-yl)amino)quinazoline-8-carboxamide]	1.4 nM
NC(=O)c1cccc2c(N[C@@H]3CNC[C@H]3c3cccc(F)c3)ncnc12 [compound 67, 4-(((3S,4R)-4-(3-fluorophenyl)pyrrolidin-3-yl)amino)quinazoline-8-carboxamide]	1.54 nM
NC(=O)c1cccc2c(N[C@H]3CNC[C@@H]3c3cccc(F)c3)ncnc12 [compound 68, 4-(((3R,4S)-4-(3-fluorophenyl)pyrrolidin-3-yl)amino)quinazoline-8-carboxamide]	48 nM
NC(=O)c1cccc2c(N[C@H]3CNC[C@@H]3c3ccc4ncccc4c3)ncnc12 [compound 70, 4-(((3R,4S)-4-(quinolin-6-yl)pyrrolidin-3-yl)amino)quinazoline-8-carboxamide]	3.3 nM
NC(=O)c1cccc2c(N[C@@H]3CNC[C@H]3c3ccc4ncccc4c3)ncnc12 [compound 71, 4-(((3S,4R)-4-(quinolin-6-yl)pyrrolidin-3-yl)amino)quinazoline-8-carboxamide]	62 nM
COc1cccc([C@H]2CNC[C@@H]2Nc2ncnc3c(C(N)=O)cccc23)c1 [compound 72, 4-(((3R,4S)-4-(3-methoxyphenyl)pyrrolidin-3-yl)amino)quinazoline-8-carboxamide]	360 nM

Continued, values first:

IC50	SMILES
6.4 nM	COc1cccc([C@@H]2CNC[C@H]2Nc2ncnc3c(C(N)=O)cccc23)c1 [compound 73, 4-(((3S,4R)-4-(3-methoxyphenyl)pyrrolidin-3-yl)amino)quinazoline-8-carboxamide]
64 nM	Cc1cc([C@H]2CNC[C@@H]2Nc2ncnc3c(C(N)=O)cccc23)ccc1F [compound 75, 4-(((3R,4S)-4-(4-fluoro-3-methylphenyl)pyrrolidin-3-yl)amino)quinazoline-8-carboxamide]
3.4 nM	Cc1cc([C@@H]2CNC[C@H]2Nc2ncnc3c(C(N)=O)cccc23)ccc1F [compound 76, 4-(((3S,4R)-4-(4-fluoro-3-methylphenyl)pyrrolidin-3-yl)amino)quinazoline-8-carboxamide]
1.2 nM	NC(=O)c1cccc2c(N[C@@H]3CNC[C@H]3c3cccc4ccccc34)ncnc12 [compound 79, 4-(((3S,4R)-4-(naphthalen-1-yl)pyrrolidin-3-yl)amino)quinazoline-8-carboxamide]
24 nM	NC(=O)c1cccc2c(N[C@H]3CNC[C@@H]3c3ccc4ccccc4c3)ncnc12 [compound 80, 4-(((3R,4S)-4-(naphthalen-2-yl)pyrrolidin-3-yl)amino)quinazoline-8-carboxamide]
160 nM	Cc1nc(N[C@H]2CNC[C@@H]2c2cccc(F)c2)c2cccc(C(N)=O)c2n1 [compound 83, 4-(((3R,4S)-4-(3-fluorophenyl)pyrrolidin-3-yl)amino)-2-methylquinazoline-8-carboxamide]
1.7 nM	Cc1nc(N[C@@H]2CNC[C@H]2c2cccc(F)c2)c2cccc(C(N)=O)c2n1 [compound 84, 4-(((3S,4R)-4-(3-fluorophenyl)pyrrolidin-3-yl)amino)-2-methylquinazoline-8-carboxamide]
81 nM	N#Cc1cccc([C@H]2CNC[C@@H]2Nc2ncnc3c(C(N)=O)cccc23)c1 [compound 87, 4-(((3R,4S)-4-(3-cyanophenyl)pyrrolidin-3-yl)amino)quinazoline-8-carboxamide]
2.4 nM	N#Cc1cccc([C@@H]2CNC[C@H]2Nc2ncnc3c(C(N)=O)cccc23)c1 [compound 88, 4-(((3S,4R)-4-(3-cyanophenyl)pyrrolidin-3-yl)amino)quinazoline-8-carboxamide]

— patent US10087166B2, “Cyclic amine azaheterocyclic carboxamides” (Merck Patent GmbH, priority 2010, dated 2018)
